Reference: patent publication US9802957B2, “Processes of preparing a JAK1 inhibitor and new forms thereto” (Incyte Corporation, priority 2014, dated 2017)
Blank lines part the entries; values can stand above or below the compound they belong to.

Tests used:
[1] = Dynamic Vapor Sorption (DVS) study; assay type: physicochemical
Description: Some of the compounds prepared were analyzed using Dynamic Vapor Sorption (DVS). Typical DVS conditions are as follows: SGA-100 Symmetric Vapor Sorption Analyzer from VTI Corporation. The moisture uptake profile was completed in four cycles in 10% relative humidity (RH) increments with the first adsorption from 25% to 95% RH, followed by desorption in 10% increments from 95% to 5% RH. The equilibration criteria were 0.0050 wt % in 5 minutes with a maximum equilibration time of 180 minutes; Data logging interval: 2.00 min or 0.0100 wt %. All adsorption and desorption were performed at room temperature (25° C.). No pre-drying step was applied.
A Dynamic Vapor Sorption (DVS) study was conducted on the compound of Example 9 to monitor the hydroscopicity, hydrate formation and dehydration, as well as solid form transformation. The moisture uptake profile was completed in four cycles in 10% relative humidity (RH) increments with the first adsorption from 25% to 95% RH, followed by desorption in 10% increments from 95% to 5% RH. The equilibration criteria were as follows: 0.0050 wt % in 5 minutes with a maximum equilibration time of 180 minutes. All adsorption and desorption were performed at room temperature (25° C.). No pre-drying step was applied for the sample.

[2] = target: T1, human JAK2 (a.a. 828-1132) (Homo sapiens, UniProt O60674); test: In vitro JAK kinase assay (HTRF), JAK2; assay type: biochemical; settings: 1 mM ATP
T1 construct: JAK2 (a.a. 828-1132); made in house; host or cells: insect cells (baculovirus)
Description: (§1) Compounds herein were tested for inhibitory activity of JAK targets according to the following in vitro assay described in Park et al., Analytical Biochemistry 1999, 269, 94-104. The catalytic domains of human JAK1 (a.a. 837-1142), JAK2 (a.a. 828-1132) and JAK3 (a.a. 781-1124) were expressed using baculovirus in insect cells and purified. The catalytic activity of JAK1, JAK2 or JAK3 was assayed by measuring the phosphorylation of a biotinylated peptide. The phosphorylated peptide was detected by homogenous time resolved fluorescence (HTRF). IC50s of compounds were measured for each kinase in the 40 μL, reactions that contain the enzyme, ATP and 500 nM peptide in 50 mM Tris (pH 7.8) buffer with 100 mM NaCl, 5 mM DTT, and 0.1 mg/mL (0.01%) BSA. For the 1 mM IC50 measurements, ATP concentration in the reactions was 1 mM. Reactions were carried out at room temperature for 1 hour and then stopped with 20 μL 45 mM EDTA, 300 nM SA-APC, 6 nM Eu-Py20 in assay buffer (Perkin Elmer, Boston, Mass.). Binding to the Europium labeled antibody took place for 40 minutes and HTRF signal was measured on a PHERAi star plate reader (BMG, Cary, N.C.).

[3] = target: T2, human JAK1 (a.a. 837-1142) (Homo sapiens, UniProt P23458); test: In vitro JAK kinase assay (HTRF), JAK1; assay type: biochemical; settings: 1 mM ATP
T2 construct: The catalytic domains of human JAK1 (a.a. 837-1142); made in house; host or cells: insect cells (baculovirus)
Description: as §1

[4] = tested on: human JAK1 (a.a. 837-1142); test: In vitro JAK kinase assay (HTRF), JAK1; assay type: biochemical
Description: as §1

Humidity Chamber Study B = assay type: physicochemical; settings: 30° C., 90% relative humidity, 7 days
Description: Temperature: 30° C.; Relative humidity: 90%; Time: 7 days.
The compound of Example 9 was placed in a humidity chamber set at 30° C. and 90% relative humidity (RH) for 7 days. […] The XRPD patterns of the 30° C./90% RH sample corresponded to the hydrate form obtained from an aqueous suspension of the anhydrous crystalline free base drug substance.

Humidity Chamber Study A = assay type: physicochemical; settings: 40° C., 75% relative humidity, 5 days
Description: Temperature: 40° C.; Relative humidity: 75%; Time: 5 days.
The compound of Example 9 was placed in a humidity chamber set at 40° C. and 75% relative humidity for 5 days.

T2 sequence (P23458 849-1154): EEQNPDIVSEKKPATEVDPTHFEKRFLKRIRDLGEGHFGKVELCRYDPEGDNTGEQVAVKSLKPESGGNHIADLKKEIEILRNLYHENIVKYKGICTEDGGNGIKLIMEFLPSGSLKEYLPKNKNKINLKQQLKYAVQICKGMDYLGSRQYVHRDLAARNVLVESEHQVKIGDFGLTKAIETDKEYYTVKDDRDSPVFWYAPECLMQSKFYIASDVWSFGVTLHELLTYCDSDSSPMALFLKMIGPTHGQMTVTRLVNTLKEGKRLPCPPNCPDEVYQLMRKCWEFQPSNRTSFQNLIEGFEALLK
T1 sequence (O60674 828-1132): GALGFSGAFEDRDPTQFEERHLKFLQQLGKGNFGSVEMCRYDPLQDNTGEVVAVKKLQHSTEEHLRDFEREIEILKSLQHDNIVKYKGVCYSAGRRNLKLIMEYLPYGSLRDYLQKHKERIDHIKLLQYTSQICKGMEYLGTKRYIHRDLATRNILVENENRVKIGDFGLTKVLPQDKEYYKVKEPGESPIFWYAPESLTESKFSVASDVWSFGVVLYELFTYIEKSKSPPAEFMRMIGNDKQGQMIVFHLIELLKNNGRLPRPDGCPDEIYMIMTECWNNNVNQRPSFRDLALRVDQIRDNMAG

Dehydration process from the hydrate to the anhydrous form ([1]; DVS desorption, 25° C.): very slow, even at 5% RH
SMILES: C[C@@H](O)c1nc2cnc3ccsc3c2n1[C@H]1CC[C@H](CC#N)OC1 [Example 10, 2-((2R,5S)-5-(2-((R)-1-hydroxyethyl)-1H-imidazo[4,5-d]thieno[3,2-b]pyridin-1-yl)tetrahydro-2H-pyran-2-yl)acetonitrile monohydrate]
Physical stability to humidity ([1]; DVS, 25° C.): physically stable in a wide range of humidity conditions

IC50 [2]: ≤ 1000 nM
IC50 [3]: ≤ 100 nM
JAK2/JAK1 ratio ([4]; 1 mM ATP, ratio of IC50s): > 10
JAK2/JAK1 IC50 ratio ([4]; general statement of selectivity for JAK1 over JAK2): > 10
SMILES: C[C@@H](O)c1nc2cnc3ccsc3c2n1[C@H]1CC[C@H](CC#N)OC1 [Formula Ia, 2-((2R,5S)-5-(2-((R)-1-hydroxyethyl)-1H-imidazo[4,5-d]thieno[3,2-b]pyridin-1-yl)tetrahydro-2H-pyran-2-yl)acetonitrile]

Water absorption of the anhydrous form ([1]; DVS, 25° C., four cycles, 5% to 95% RH): slow below 85% RH and fast above 85% RH
Solid form after DVS cycle 4 ([1]; DVS, 25° C., XRPD before and after): fully converted to the hydrate form
Water content by KF after humidity chamber (Humidity Chamber Study B): 4.72%
Weight loss observed by TGA after humidity chamber (Humidity Chamber Study B): 5.05%
Water content by KF after humidity chamber (Humidity Chamber Study A): 4.6%
Weight loss observed by TGA after humidity chamber (Humidity Chamber Study A): 5.01%
SMILES: C[C@@H](O)c1nc2cnc3ccsc3c2n1[C@H]1CC[C@H](CC#N)OC1 [Example 9, 2-((2R,5S)-5-(2-((R)-1-hydroxyethyl)-1H-imidazo[4,5-d]thieno[3,2-b]pyridin-1-yl)tetrahydro-2H-pyran-2-yl)acetonitrile]
Behaviour under ambient storage conditions ([1]; ambient storage): slowly absorb water and convert to hydrate form
Solid form by XRPD after humidity chamber (Humidity Chamber Study B): converted to the crystalline hydrate form
Solid form by XRPD after humidity chamber (Humidity Chamber Study A): converted to the crystalline hydrate form
